In ChEMBL document CHEMBL1201862, “PubChem BioAssay data set” (2004):
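Briefly, cells in 96-well plates were exposed to five compound concentrations for 48 h, and endpoints were estimated by linear interpolation. Abbreviation: GI50, concentration required for 50% inhibition of growth.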 Calls of active or inactive are those of the source. No stated cut-off is given here; in the data, active = GI50 up to about 1.1 µM and inactive = higher.

What was measured:
Assay in all cases: NCI tumour cell line growth inhibition, 48 h
HT-29 = test system: HT-29
K562 = test system: K562
RPMI-8226 = test system: RPMI-8226
IGROV-1 = test system: IGROV-1
A498 = test system: A498
CCRF-CEM = test system: CCRF-CEM
HCC 2998 = test system: HCC 2998
UACC-62 = test system: UACC-62
SF-295 = test system: SF-295
MOLT-4 = test system: MOLT-4
SW-620 = test system: SW-620
NCI-H226 = test system: NCI-H226
M14 = test system: M14
HCT-116 = test system: HCT-116
OVCAR-4 = test system: OVCAR-4
EKVX = test system: EKVX
MDA-N = test system: MDA-N
SK-OV-3 = test system: SK-OV-3
BT-549 = test system: BT-549
LOX IMVI = test system: LOX IMVI
UACC-257 = test system: UACC-257
UO-31 = test system: UO-31
HL-60 = test system: HL-60
KM12 = test system: KM12
Hs-578T = test system: Hs-578T
COLO 205 = test system: COLO 205
NCI-H460 = test system: NCI-H460
HOP-92 = test system: HOP-92
SK-MEL-28 = test system: SK-MEL-28
PC-3 = test system: PC-3
A549 = test system: A549
SF-268 = test system: SF-268
SN12C = test system: SN12C
OVCAR-8 = test system: OVCAR-8
CAKI-1 = test system: CAKI-1
NCI/ADR-RES = test system: NCI/ADR-RES
ACHN = test system: ACHN
HCT-15 = test system: HCT-15
T47D = test system: T47D
SK-MEL-2 = test system: SK-MEL-2
NCI-H23 = test system: NCI-H23
MDA-MB-435 = test system: MDA-MB-435
SNB-75 = test system: SNB-75
786-0 = test system: 786-0
RXF 393 = test system: RXF 393
SNB-19 = test system: SNB-19
Malme-3M = test system: Malme-3M
DU-145 = test system: DU-145
MDA-MB-231 = test system: MDA-MB-231
MCF7 = test system: MCF7
NCI-H522 = test system: NCI-H522
OVCAR-5 = test system: OVCAR-5
SK-MEL-5 = test system: SK-MEL-5
U-251 = test system: U-251
TK-10 = test system: TK-10
HOP-62 = test system: HOP-62

Cc1nnc(N)nc1C/C=C/C(C)Sc1ccc(Cl)cc1 (stereo unspecified)
GI50 (HT-29): 16 µM (inactive) | GI50 (K562): 9.73 µM (inactive) | GI50 (RPMI-8226): > 21.7 µM (inactive) | GI50 (IGROV-1): 3.41 µM (inactive) | GI50 (A498): 6.32 µM (inactive) | GI50 (CCRF-CEM): 2.33 µM (inactive) | GI50 (HCC 2998): 14.4 µM (inactive) | GI50 (UACC-62): 5.33 µM (inactive) | GI50 (SF-295): 2.77 µM (inactive) | GI50 (MOLT-4): 3.7 µM (inactive) | GI50 (SW-620): 9.04 µM (inactive) | GI50 (NCI-H226): 2.04 µM (inactive) | GI50 (M14): 7.69 µM (inactive) | GI50 (HCT-116): 5.74 µM (inactive) | GI50 (OVCAR-4): 10.1 µM (inactive) | GI50 (EKVX): 4.61 µM (inactive) | GI50 (MDA-N): 14.4 µM (inactive) | GI50 (SK-OV-3): 4.52 µM (inactive) | GI50 (BT-549): 5.22 µM (inactive) | GI50 (LOX IMVI): 4.4 µM (inactive) | GI50 (UACC-257): 10.8 µM (inactive) | GI50 (UO-31): 3.49 µM (inactive) | GI50 (HL-60): 3.89 µM (inactive) | GI50 (KM12): 4.7 µM (inactive) | GI50 (Hs-578T): 7.14 µM (inactive) | GI50 (COLO 205): 19.1 µM (inactive) | GI50 (NCI-H460): 7.55 µM (inactive) | GI50 (HOP-92): 11.4 µM (inactive) | GI50 (SK-MEL-28): 12.3 µM (inactive) | GI50 (PC-3): 4.35 µM (inactive) | GI50 (A549): 7 µM (inactive) | GI50 (SF-268): 3.78 µM (inactive) | GI50 (SN12C): 11.1 µM (inactive) | GI50 (OVCAR-8): 16.5 µM (inactive) | GI50 (CAKI-1): 7.94 µM (inactive) | GI50 (NCI/ADR-RES): 9.79 µM (inactive) | GI50 (ACHN): 7.46 µM (inactive) | GI50 (HCT-15): 12.8 µM | GI50 (T47D): 8.07 µM (inactive) | GI50 (SK-MEL-2): 12.8 µM (inactive) | GI50 (NCI-H23): 5.47 µM (inactive) | GI50 (MDA-MB-435): 7.73 µM (inactive) | GI50 (SNB-75): 6.01 µM (inactive) | GI50 (786-0): 8.41 µM (inactive) | GI50 (RXF 393): 7.28 µM (inactive) | GI50 (SNB-19): 5.58 µM (inactive) | GI50 (Malme-3M): 13.2 µM (inactive) | GI50 (DU-145): 11.9 µM (inactive) | GI50 (MDA-MB-231): 20.1 µM (inactive) | GI50 (MCF7): 5.28 µM (inactive) | GI50 (NCI-H522): 4 µM (inactive) | GI50 (OVCAR-5): 10.9 µM (inactive) | GI50 (SK-MEL-5): 6.08 µM (inactive) | GI50 (U-251): 8.93 µM (inactive) | GI50 (TK-10): 15 µM (inactive) | GI50 (HOP-62): 6.47 µM (inactive)
